In brackets after ≈: the same amount, converted by molar mass. Like-named read-outs stand apart in the source and are kept apart here.
Experiments:
[1] = test system: L. (L.) major promastigotes; assay: In vitro antileishmanial activity (CellTiter-Glo luminescent cell viability); assay type: cell-based, Leishmania (L.) major; set-up: key to Activity class against promastigotes based on IC50: very active (IC50 < 10 μg/mL); active (IC50 > 10 < 50 μg/mL); moderately active (IC50 > 50 < 100 μg/mL); inactive (IC50 > 100 μg/mL); details: for IC50: Leishmania major; for Selectivity index (SI): SI = CC50 (L929)/IC50 (L. (L.) major promastigotes)
Method: Protozoan isolates were obtained from the Parasite Bank at the Department of Parasitology, Faculty of Medicine, Manisa Celal Bayar University. The subsequent procedure for acquiring promastigotes was as follows: the major L. (L.) isolate was classified as MHOM/TR/2014/CBL-LM. It was preserved in liquid nitrogen and defrosted by placing it in a water bath at 37 °C for two minutes after its removal from preservation. Subsequent to melting, the NNN medium was inoculated and incubated in an incubator at 25 °C. The reproductive condition of the protozoan was assessed by making coverslips and slides twice daily. Following parasite replication, the cells were transferred from the NNN medium to the RPMI-1640 medium (Gibco, Paisley, Scotland, UK) to facilitate further proliferation. Before application, 10% fetal calf serum, 1% penicillin/streptomycin, and 1% gentamicin were added to a widely available commercial medium. Distribution was conducted using 5 milliliters per 25 mL flask, and cultivation was performed by adding 50 μL of the cultured promastigotes. Flasks designated for cultivation were incubated in a 25 °C incubator. Parasite reproduction was observed, and the medium was supplemented every 2–3 days. Subsequently, the number of promastigotes was quantified using a Thoma chamber, yielding a concentration of 10^6 promastigotes/mL, and a suspension comprising promastigotes was formulated.
The synthesized compounds were dissolved in DMSO to a final concentration of no more than 0.5% [51]. Based on preliminary studies, the K1 compound was prepared at concentrations ranging from 0.23 µg/mL to 30 µg/mL, while the K2, K3, and K4 compounds were prepared at concentrations ranging from 1.95 µg/mL to 250 µg/mL.
The assay was conducted using 96-well flat-bottom microtiter plates, with three replicate wells per experimental group. The groups included a blank control, parasite control (no treatment), drug control (Amphotericin B), and test groups for compounds K1, K2, K3, and K4. Each well was filled with 100 µL of RPMI-1640 medium supplemented with 10% fetal calf serum, 1% penicillin/streptomycin, and 1% gentamicin. For the four test compounds and Amphotericin B, 100 µL of the respective solution was added to the first well of each group. The contents were mixed thoroughly using an automated dispensing pipette, followed by serial dilutions down the respective wells. Promastigote suspensions, previously counted using a Thoma counting chamber, were added at 100 µL per well to all wells except those designated as blanks. No parasites were added to the blank wells. The plates were then covered with lids, sealed with parafilm, and incubated at 25 °C. Following incubation, cell viability was assessed using the CellTiter-Glo® Luminescent Cell Viability Assay Kit (Promega, Madison, WI, USA). This experimental procedure was repeated in three independent experiments conducted at different time points.
It is calculated as the ratio of the cytotoxic concentration (CC50) required to cause 50% cell death in mammalian cells to the inhibitory concentration (IC50) required to kill 50% of the parasites. The selectivity index values of benzimidazole derivatives for L. (L.) major promastigotes were determined using the following equation: SI = CC50/IC50 [55].

[2] = Cytotoxicity test (MTT); assay type: cell-based, mouse; details: L929 mouse fibroblast cells, 48 h, MTT
Method: (§1) The cytotoxic effects of the benzimidazole derivatives and AmpB were determined using the L929 cell line (American Type Culture Collection, Manassas, VA, USA). In total, 100 µL of the cell suspension (10^5/mL) was added to each well comprising sterile, flat-bottomed 96-well microplates. The microplates were then incubated at 37 °C in a 5% CO2 incubator for 24 h. Cytotoxic activity was evaluated using the same concentrations applied in the antileishmanial activity assessment. For compound K1, serial dilutions were prepared in the range of 0.23–30 µg/mL, and for the other compounds, in the range of 1.95–250 µg/mL. These dilutions were added to a second microplate, and 100 µL from each well was transferred to the first plate. The plates were then incubated under the same conditions for an additional 48 h.
(§2) Cell viability was determined using the 3-(4.5-dimethylthiazol-2-yl)-2.5-diphenyltetrazolium bromide) (Sigma, Kawasaki, Japan) method. After the completion of the incubation period, all media from the microplates, both containing and lacking the active ingredient, were discarded. Subsequently, 100 μL of MTT suspension was added to each well, and the plates were incubated in a CO2 incubator at 37 °C for four hours. At the end of the incubation period, all wells in the microplates were emptied, and 100 μL of pure DMSO (to dissolve the formazan crystals) was pipetted into each well and incubated under the same conditions for 30 min. Absorbance was measured at 570 nm using a spectrophotometer (Biotek 800TS, Winooski, VT, USA). CC50 values were determined using GraphPad Prism version 8.4.2. All experiments were performed in triplicate, with three independent trials and two replicates per trial.

[3] = test system: L929 cell line; assay: Cytotoxicity test (MTT); assay type: cell-based, mouse; details: L929 cells
Method: as §1, §2

[4] = test system: L. (L.) major promastigotes; assay: Morphological alterations of promastigotes by Giemsa staining; assay type: cell-based, Leishmania (L.) major; details: serial dilutions 0.23 µg/mL to 30 µg/mL, 48 h
Method: The morphological alterations caused by compound K1 at various concentrations in L. (L.) major promastigotes were assessed at the 48 h mark utilizing Giemsa staining (Figure 3).
Figure 3 Control (a) and serial dilutions of the K1 compound (ranging from 0.23 µg/mL to 30 µg/mL) (b–l) in wells containing L. (L.) major promastigotes (100× magnification).

[5] = L. (L.) major promastigotes (MHOM/TR/2014/CBL-LM), 25 °C, CellTiter-Glo, read-out: IC50 (antileishmanial activity)

Structure (SMILES)	IC50 [1, 5]	Selectivity index (SI) [1]	CC50 at 48 h [2]	Cytotoxic effect on L929 cells [3]	Morphological alterations in promastigotes [4]	Activity class against promastigotes based on IC50 ([1]; L. (L.) major promastigotes)	IC50 ([1]; L. (L.) major promastigotes, read-out: Activity class against promastigotes based on IC50)
C[C@@H]1[C@H](O)[C@@H](C)/C=C/C=C/C=C/C=C/C=C/C=C/C=C/[C@H](O[C@@H]2O[C@H](C)[C@@H](O)[C@H](N)[C@@H]2O)C[C@@H]2O[C@](O)(C[C@@H](O)C[C@@H](O)[C@H](O)CC[C@@H](O)C[C@@H](O)CC(=O)O[C@H]1C)C[C@H](O)[C@H]2C(=O)O [AmpB, Amphotericin B, reference compound]	0.274 µg/mL (≈ 0.297 µM)	–	–	–	–	–	–
CC(=O)c1nc2ccccc2n1CC(=O)c1cccc(Cl)c1 [K1]	0.679 µg/mL (≈ 2.17 µM)	368.25	250 µg/mL (≈ 799 µM)	not observed	decreases in the number of promastigotes and morphological structural disruptions were observed	–	–
Cc1nc(-c2cccc(Cl)c2)cn2c1nc1ccccc12 [K2]	8.89 µg/mL (≈ 30.3 µM)	7.08	63 µg/mL (≈ 214 µM)	–	–	–	–
Cc1nc(-c2ccccc2)cn2c1nc1ccccc12 [K3]	45.1 µg/mL (≈ 174 µM)	0.012	0.56 µg/mL (≈ 2.16 µM)	–	–	active	–
Cc1nc(-c2ccc(Cl)cc2)cn2c1nc1ccccc12 [K4]	69.2 µg/mL (≈ 236 µM)	4.22	292 µg/mL (≈ 994 µM)	–	–	–	50 to 100 µg/mL (≈ 170 to 340 µM)

Reference: article PMC12197429, “Evaluation of the Antileishmanial Activity of Some Benzimidazole Derivatives Using In Vitro and In Silico Techniques” (Veterinary Sciences, 2025)
